Literature values as cited in US20230346830A1 (priority 2020, published 2023).
Like-named read-outs stand apart in the source and are kept apart here.

What was measured:
[1] = tested on: SARS CoV
[2] = 160 ppm for 30 min every 3.5 hours, intermittent
[3] = tested on: broad range of microorganisms; conditions: no less than 160 ppm, five hours of continuous exposure
[4] = tested on: severe acute respiratory syndrome SARS; conditions: in vivo
[5] = tested on: influenza WSN/33

Row | Structure (SMILES) | inhibition of the virus replication cycle compared with cytokine treatment ([1]; 50 μM SNAP) | reduction in the yield of progeny virus ([1]; 100 μM SNAP) [log] | viral RNA production ([1]; 400 μM SNAP) | inhibitory effect on yield of progeny virus ([1]; 400 μM SNAP, compared with 100 μM) | replication cycle of SARS CoV ([1]; concentration-dependent) | methemoglobinemia [2] | replication cycle of SARS CoV [1] | antimicrobial response in vitro [3] | arterial oxygen saturation [4] | lung infiltrates [4] | survival of infected mice ([5]; administered prophylactically or post-influenza infection, 80 ppm continuous or 160 ppm intermittent) | lung viral load between experimental groups ([5]; influenza-infected mice) | effect on the virus ([5]; influenza-infected mice, continuously at 80 ppm or intermittently at 160 ppm for 30 minutes followed by 3½ hours of breathing air)
1 | CC(=O)N[C@H](C(=O)O)C(C)(C)SN=O (racemic) [SNAP, S-nitroso-N-acetylpenicillamine] | same level of inhibition | 2 | significantly inhibited | even more pronounced | significantly inhibited |  |  |  |  |  |  |  | 
2 | [N]=O [NO, Nitric oxide] |  |  |  |  |  | could prevent methemoglobinemia | specifically inhibits | non-specific antimicrobial response | improved | decreased the spread and intensity | failed to improve survival | No difference | no effect
